# Data taken from paper PMC12150326 (The Journal of Organic Chemistry, 2025).
# Where two headings read alike, the source gives them in different places.
# Key:
# NCI-H23 = assay type: cell-based, human; conditions: for GI50: Homo sapiens
# In short: (§1)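 Five-dose testing in the National Cancer Institute cell screen covered 100 μM to 0.01 μM.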
# SR = assay type: cell-based, human; conditions: for GI50: Homo sapiens
# In short: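 Concentrations tested in the NCI-60 panel were 0.01, 0.1, 1, 10 and 100 μM. The endpoint taken forward was TGI, whose pattern across lines was run through COMPARE alongside earlier tubulin inhibitors.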
# MDA-MB-231/ATCC = assay type: cell-based, human; conditions: for GI50: Homo sapiens
# In short: as §1
# SK-MEL-5 = assay type: cell-based, human; conditions: for GI50: Homo sapiens
# In short: as §1
# DU-145 = assay type: cell-based, human
# In short: (§2)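 Each atropisomer and iso-atropisomer was submitted to the NCI screen and run at five tenfold dilutions from 100 μM down to 0.01 μM.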
# SF-268 = assay type: cell-based, human
# In short: as §2
# SF-295 = assay type: cell-based, human; conditions: for GI50: Homo sapiens
# In short: as §1
# KM12 = assay type: cell-based, human; conditions: for Log10GI50 / Log10LC50 / Log10TGI: KM12
# In short: as §2
# NCI-H226 = assay type: cell-based, human; conditions: for GI50: Homo sapiens
# In short: as §1
# bovine brain tubulin = experiment: Tubulin polymerization inhibition; assay type: biochemical; conditions: 10 μM tubulin; for Polymerization Inhibition (%) 3.3 μM: 3.3 μM compound; for Polymerization Inhibition (%) 33 μM: 33 μM compound
# Protocol: Inhibition of tubulin polymerization was determined as described previously. In brief, 10 μM bovine brain tubulin (PurSolutions, LLC (puresoluble.com)) was incubated under conditions strongly promoting polymerization of tubulin (1 M NaGlutamate, 0.1 M Mes (Morpholinoethanesulfonic acid), 1 mM MgCl2, 0.5 mM GTP, pH 6.9), in the absence or presence of 3.3 or 33 μM test compound, incubated for 30 min at 37 °C, then centrifuged at 100,000g for 8 min, and the top 3/4 of the supernatant removed. Protein concentration was measured, and polymerization was determined as pelletable protein lost from the supernatant.
# [1] = tested on: colchicine site of bovine brain tubulin; assay type: binding; conditions: for Kd: tubulin binding constant, 25 °C
# Protocol: Inhibition of this fluorescence increase was measured and converted to K d for the test compound as described.
compound,measurement,setting,value
"COc1cc(C)c(-c2ccc(OC)c(=O)cc2C)c(OC)c1OC (single isomer, unassigned) [(aR)-6]",Log10GI50,NCI-H23,-5.39 Molar
same,Log10LC50,NCI-H23,> -4.00 Molar
same,Log10TGI,NCI-H23,> -4.00 Molar
same,GI50,NCI-H23,4.07 µM
same,Log10GI50,NCI-H23; listed as (aR)-DM-MTC,-5.39 Molar
same,Log10GI50,SR,-6.44 Molar
same,Log10LC50,SR,> -4.00 Molar
same,Log10TGI,SR,> -4.00 Molar
same,GI50,SR,0.36 µM
same,Log10GI50,SR; listed as (aR)-DM-MTC,-6.44 Molar
same,Log10GI50,MDA-MB-231/ATCC,-5.59 Molar
same,Log10LC50,MDA-MB-231/ATCC,> -4.00 Molar
same,Log10TGI,MDA-MB-231/ATCC,> -4.00 Molar
same,GI50,MDA-MB-231/ATCC,2.57 µM
same,Log10GI50,MDA-MB-231/ATCC; listed as (aR)-DM-MTC,-5.59 Molar
same,Log10GI50,SK-MEL-5,-5.50 Molar
same,Log10LC50,SK-MEL-5,> -4.00 Molar
same,Log10TGI,SK-MEL-5,-4.42 Molar
same,GI50,SK-MEL-5,3.16 µM
same,Log10GI50,SK-MEL-5; listed as (aR)-DM-MTC,-5.5 Molar
same,Log10GI50,DU-145,-5.45 Molar
same,Log10LC50,DU-145,> -4.00 Molar
same,Log10TGI,DU-145,> -4.00 Molar
same,GI50,DU-145; Homo sapiens,3.55 µM
same,Log10GI50,DU-145; listed as (aR)-DM-MTC,-5.45 Molar
same,Log10GI50,SF-268,-5.26 Molar
same,Log10LC50,SF-268,> -4.00 Molar
same,Log10TGI,SF-268,> -4.00 Molar
same,GI50,SF-268; Homo sapiens,5.5 µM
same,Log10GI50,SF-268; listed as (aR)-DM-MTC,-5.26 Molar
same,Log10GI50,SF-295,-5.76 Molar
same,Log10LC50,SF-295,> -4.00 Molar
same,Log10TGI,SF-295,> -4.00 Molar
same,GI50,SF-295,1.74 µM
same,Log10GI50,SF-295; listed as (aR)-DM-MTC,-5.76 Molar
same,GI50,"KM12; Homo sapiens, KM12 (printed KM29)",1620 nM
same,Log10GI50,KM12,-5.79 Molar
same,Log10LC50,KM12,> -4.00 Molar
same,Log10TGI,KM12,> -4.00 Molar
same,Log10GI50,KM12; listed as (aR)-DM-MTC,-5.79 Molar
same,Log10GI50,NCI-H226,-5.41 Molar
same,Log10LC50,NCI-H226,> -4.00 Molar
same,Log10TGI,NCI-H226,> -4.00 Molar
same,GI50,NCI-H226,3.89 µM
same,Log10GI50,NCI-H226; listed as (aR)-DM-MTC,-5.41 Molar
same,Polymerization Inhibition (%) 3.3 μM,bovine brain tubulin,0%
same,Polymerization Inhibition (%) 33 μM,bovine brain tubulin,100%
same,binding constant fold less potent than 3,[1],5–30 fold
same,Kd,[1]; read-out: Kd,95 µM
"COc1cc(C)c(-c2ccc(=O)c(OC)cc2C)c(OC)c1OC (single isomer, unassigned) [(aR)-iso-6]",Log10GI50,NCI-H23,> -4.00 Molar
same,Log10LC50,NCI-H23,> -4.00 Molar
same,Log10TGI,NCI-H23,> -4.00 Molar
same,Log10GI50,SR,> -4.00 Molar
same,Log10LC50,SR,> -4.00 Molar
same,Log10TGI,SR,> -4.00 Molar
same,Log10GI50,MDA-MB-231/ATCC,> -4.00 Molar
same,Log10LC50,MDA-MB-231/ATCC,> -4.00 Molar
same,Log10TGI,MDA-MB-231/ATCC,> -4.00 Molar
same,Log10GI50,SK-MEL-5,> -4.00 Molar
same,Log10LC50,SK-MEL-5,> -4.00 Molar
same,Log10TGI,SK-MEL-5,> -4.00 Molar
same,Log10GI50,SF-295,> -4.00 Molar
same,Log10LC50,SF-295,> -4.00 Molar
same,Log10TGI,SF-295,> -4.00 Molar
same,Log10GI50,NCI-H226,> -4.00 Molar
same,Log10LC50,NCI-H226,> -4.00 Molar
same,Log10TGI,NCI-H226,> -4.00 Molar
same,Polymerization Inhibition (%) 3.3 μM,bovine brain tubulin,0%
same,Polymerization Inhibition (%) 33 μM,bovine brain tubulin,0%
same,Kd,[1],nb
"COc1cc(C)c(-c2ccc(OC)c(=O)cc2C)c(OC)c1OC (single isomer, unassigned) [(aS)-6]",Log10GI50,NCI-H23,> -4.00 Molar
same,Log10LC50,NCI-H23,> -4.00 Molar
same,Log10TGI,NCI-H23,> -4.00 Molar
same,Log10GI50,SR,> -4.00 Molar
same,Log10LC50,SR,> -4.00 Molar
same,Log10TGI,SR,> -4.00 Molar
same,Log10GI50,MDA-MB-231/ATCC,> -4.00 Molar
same,Log10LC50,MDA-MB-231/ATCC,> -4.00 Molar
same,Log10TGI,MDA-MB-231/ATCC,> -4.00 Molar
same,Log10GI50,SK-MEL-5,> -4.00 Molar
same,Log10LC50,SK-MEL-5,> -4.00 Molar
same,Log10TGI,SK-MEL-5,> -4.00 Molar
same,Log10GI50,DU-145,> -4.00 Molar
same,Log10LC50,DU-145,> -4.00 Molar
same,Log10TGI,DU-145,> -4.00 Molar
same,Log10GI50,SF-268,> -4.00 Molar
same,Log10LC50,SF-268,> -4.00 Molar
same,Log10TGI,SF-268,> -4.00 Molar
same,Log10GI50,SF-295,> -4.00 Molar
same,Log10LC50,SF-295,> -4.00 Molar
same,Log10TGI,SF-295,> -4.00 Molar
same,Log10GI50,KM12,> -4.00 Molar
same,Log10LC50,KM12,> -4.00 Molar
same,Log10TGI,KM12,> -4.00 Molar
same,Log10GI50,NCI-H226,> -4.00 Molar
same,Log10LC50,NCI-H226,> -4.00 Molar
same,Log10TGI,NCI-H226,> -4.00 Molar
same,Polymerization Inhibition (%) 3.3 μM,bovine brain tubulin,0%
same,Polymerization Inhibition (%) 33 μM,bovine brain tubulin,0%
same,Kd,[1]; read-out: Kd,230 µM
"COc1cc(C)c(-c2ccc(=O)c(OC)cc2C)c(OC)c1OC (single isomer, unassigned) [(aS)-iso-6]",Log10GI50,NCI-H23,-4.33 Molar
same,Log10LC50,NCI-H23,> -4.00 Molar
same,Log10TGI,NCI-H23,> -4.00 Molar
same,GI50,NCI-H23,46.8 µM
same,Log10GI50,NCI-H23; […],-4.33 Molar
same,Log10GI50,SR,-5.24 Molar
same,Log10LC50,SR,> -4.00 Molar
same,Log10TGI,SR,> -4.00 Molar
same,GI50,SR,5.75 µM
same,Log10GI50,SR; […],-5.24 Molar
same,Log10GI50,MDA-MB-231/ATCC,-4.63 Molar
same,Log10LC50,MDA-MB-231/ATCC,> -4.00 Molar
same,Log10TGI,MDA-MB-231/ATCC,> -4.00 Molar
same,GI50,MDA-MB-231/ATCC,23.4 µM
same,Log10GI50,MDA-MB-231/ATCC; […],-4.63 Molar
same,Log10GI50,SK-MEL-5,-4.34 Molar
same,Log10LC50,SK-MEL-5,> -4.00 Molar
same,Log10TGI,SK-MEL-5,> -4.00 Molar
same,GI50,SK-MEL-5,45.7 µM
same,Log10GI50,SK-MEL-5; […],-4.34 Molar
same,Log10GI50,SF-295,-4.64 Molar
same,Log10LC50,SF-295,> -4.00 Molar
same,Log10TGI,SF-295,> -4.00 Molar
same,GI50,SF-295,25.7 µM
same,Log10GI50,SF-295; […],-4.59 Molar
same,Log10GI50,NCI-H226,-4.06 Molar
same,Log10LC50,NCI-H226,> -4.00 Molar
same,Log10TGI,NCI-H226,> -4.00 Molar
same,GI50,NCI-H226,87.1 µM
same,Log10GI50,NCI-H226; […],-4.06 Molar
same,Polymerization Inhibition (%) 3.3 μM,bovine brain tubulin,0%
same,Polymerization Inhibition (%) 33 μM,bovine brain tubulin,0%
same,Kd,[1],nb
